Assay results from US9456555B2, “Agent for treating grape vine wood” (Financiere Mercier, priority 2011, dated 2016).

Columns and labels:
[1] = test system: grapevine seedlings; experiment: Percentage of recovery (take) after planting; assay type: in vivo
From the text: The result of recovery (take) after planting (growth of the plants) is very important, as the treatment must not be injurious for the grapevine seedlings.

[2] = test system: 8 fungi referenced as pathogens and associated with various diseases of the wood; experiment: Comparative in vitro test on PDA medium, mycelium growth; assay type: cell-based; settings: 10 ml solution left for 12 h on PDA; observed several weeks, about 25° C.; neutral anolyte 100%
Experimental: That is why an in vitro test was carried out, in order to compare the effect of water, hydrogen peroxide, desogerm and the neutral anolyte (100%) on 8 fungi referenced as pathogens and associated with various diseases of the wood. Strains of the 8 fungi mentioned above were deposited on culture medium with low discrimination (PDA—Potato Dextrose Agar—Medium). Then 10 ml of each solution was added to Petri dishes with the inoculated strains of fungi, and left for 12 h.

[3] = test system: Botryosphaeria obtusa, Botryosphaeria dothidea, Eutypa lata, Fomitiporia punctata, Phaeacremonium aleophilum, Phaeomonelia chlamydospora, Phaeoacremonium spp. …; experiment: Comparative in vivo test of wood disinfection, PCR analysis for presence of 8 fungi; parameters: species or system grapevine; settings: immersion 12 h
Experimental: The in vivo test consisted of evaluating a set of 1025 plants derived from 4 rootstocks and 5 different varieties (to limit the varietal effect). Samples of the seedlings were taken before and after treatment. The treatment consisted of immersing the wood in the various solutions under test for 12 h, i.e. the usual rehydration time of the wood in the nursery (overnight). The samples of wood before and after treatment were analyzed, by extracting the total DNA of the wood samples taken, and evaluation by molecular diagnostics (PCR analysis) for the presence or absence of these 8 fungi: Botryosphaeria obtusa, Botryosphaeria dothidea, Eutypa lata, Fomitiporia punctata, Phaeacremonium aleophilum, Phaeomonelia chlamydospora, Phaeoacremonium spp. and Cylindrocarpon destructans. […] If nothing is indicated, it is because it was never found.

- Percentage of recovery of the treated seedlings ([1]; 8 days after planting): 59%
- Percentage of recovery of the treated seedlings ([1]; 20 days after planting): 94.8%
- alteration of the wood ([1]; contact with the cuttings during the rehydration phase): alters the wood
Compound: OO [H2O2, hydrogen peroxide]
- growth of the fungi (radius of mycelium) [2]: a certain efficacy
- fungus found at least once among the individuals evaluated (PCR) ([3]; Merlot.N (182), with THW (50° C.-45 min)): B.obt
- fungus found at least once among the individuals evaluated (PCR) ([3]; R110 (151), with THW (50° C.-45 min)): B.obt
- fungus found at least once among the individuals evaluated (PCR) ([3]; SO4(203), with THW (50° C.-45 min)): B.obt
- fungus found at least once among the individuals evaluated (PCR) ([3]; SO4(203), without THW): E.lata
